Literature values in US20100227313A1, “Methods and Compositions for Determining Altered Susceptibility of HIV-1 to Protease Inhibitor Treatment” (priority 2007, published 2010).

Test system: HIV protease
Settings: 2006, cited from earlier work

CC(C)CN(C[C@@H](O)[C@H](Cc1ccccc1)NC(=O)O[C@H]1CCOC1)S(=O)(=O)c1ccc(N)cc1 [APV, amprenavir]
effect of I47A mutation on susceptibility (I47A, de Mendoza et al.): reduced susceptibility
effect of L33F mutation in protease on susceptibility (L33F, Kozal et al.): correlate with resistance
